From patent US5885995A, “Inhibitors of farnesyl-protein transferase” (Merck & Co., Inc., priority 1997, dated 1999)
pIC50: −log10 of the molar value. Where a name gives a salt, the structure may show the parent alone.

Target: T1, human FPTase (Homo sapiens, UniProt P49354+P49356)
T1 construct: made in house
Assay: In vitro inhibition of human farnesyl-protein transferase (FPTase)
Format: biochemical
Conditions: [3H]-FPP, 100 nM Ras-CVIM, 30 min, read-out: IC50 (inhibitory activity against human FPTase)

pIC50: ≥ 5.00
Structure (SMILES): N#Cc1ccc(Cn2cncc2CN2CCN(c3cccc(Cl)c3)CC2=O)cc1 [Example 1, 4-(3-Chlorophenyl)-1-[1-(4-cyanobenzyl)-5-imidazolylmethyl]-2-piperazinone hydrochloride]
